Patent US6291231A, “Microorganism producing terphenyl compounds” (Shionogi & Co., Ltd., priority 1996, dated 2001)
Converted amounts (≈) assume the structure as drawn.

Key:
[1] = test system: BDF1 mouse splenocytes; experiment: Suppression of the concanavalin A (Con A) mitogen reaction of mouse splenocytes, 3H-thymidine uptake; assay type: cell-based; conditions: for Radioactivity cpm ± SD / inhibition at 0.00025 µg/mL / inhibition at 0.00098 µg/mL / inhibition at 0.00391 µg/mL / inhibition at 0.0156 µg/mL / inhibition at 0.0625 µg/mL: Con A 5 μg/ml, 48 h; for Radioactivity cpm ± SD: 3H-thymidine; for inhibition at 0.00025 µg/mL / inhibition at 0.00098 µg/mL / inhibition at 0.00391 µg/mL / inhibition at 0.0156 µg/mL / inhibition at 0.0625 µg/mL: Mus musculus; for inhibition at 0.00025 µg/mL / inhibition at 0.00098 µg/mL / inhibition at 0.00391 µg/mL / inhibition at 0.0156 µg/mL / inhibition at 0.0625 µg/mL / IC50: Splenocyte; for IC50: Con A reaction of mouse splenocytes; for Suppression of the Con A reaction of mouse splenocytes (in words): depending on the compound concentration
Method: (§1) To each well of a 96 well microtiter plate were added 5×10^5 BDF1 mouse splenocytes suspended in 0.1 ml of 10% fetal calf serum-fortifed RPMI 1640 medium (2 mM of sodium bicarbonate, 50 units/ml of penicillin, 50 μg/ml of streptomycin and 5×10^-5 M of 2-mercaptethanol were added) were added. To each well, 5 μg/ml of Con A as a mitogen and the compound (I-1), (I-2) or (I-3) of a pre-determined concentration were added so that a final volume of each well reached 0.2 ml. Each compound of the present invention was dissolved in dimethylsulfoxide (DMSO) and diluted with the above RPMI 1640 medium to adjust the final concentration to 100 ng/ml or less. The splenocytes in the 96 well microtiter plate were cultivated at 37° C. for 48 hours in an incubator keeping the humidity 100%, carbon dioxide 5% and air 95%. The cells were pulse-labeledwith 3H-thymidine (18.5 Kbq/well) before 6 hours of harvest. After the cultivation, the cells were collected by a cell harvester and radioactivity taken in the cells was measured for being used as an indicator of a cell proliferation activity. Con A-free (--Con A) medium was used as a control.

[2] = test system: BDF1 mouse splenocytes; experiment: Suppression of the lipopolysaccharide (LPS) reaction of mouse splenocytes, 3H-thymidine uptake; assay type: cell-based; conditions: for Radioactivity cpm ± SD / inhibition at 0.00098 µg/mL / inhibition at 0.00391 µg/mL / inhibition at 0.0156 µg/mL / inhibition at 0.0625 µg/mL / inhibition at 0.25 µg/mL: LPS 10 μg/ml; for Radioactivity cpm ± SD: 3H-thymidine; for inhibition at 0.00098 µg/mL / inhibition at 0.00391 µg/mL / inhibition at 0.0156 µg/mL / inhibition at 0.0625 µg/mL / inhibition at 0.25 µg/mL: Mus musculus, 48 h; for inhibition at 0.00098 µg/mL / inhibition at 0.00391 µg/mL / inhibition at 0.0156 µg/mL / inhibition at 0.0625 µg/mL / inhibition at 0.25 µg/mL / IC50: Splenocyte; for IC50: LPS reaction of mouse splenocytes; for Suppressive effect on the LPS reaction of mouse splenocytes (in words): depends on the compound concentration
Method: as §1, with “Each compound of the present invention was dissolved in dimethylsulfoxide (DMSO) and diluted with the above RPMI 1640 medium to adjust the final concentration to 100 ng/ml or less.” left out
By the same method as described in above 1-1 except that lipopolysaccharide (LPS, 10 μg/ml) was used in spite of concanavalin A, a suppression of the reaction was examined. LPS-free (--LPS) medium was used as a control.

[3] = test system: CCD-19Lu human normal pneumocyte; experiment: Cell proliferation inhibition (MTT), CCD-19Lu; assay type: cell-based
Method: (§2) To each well of a 96 well microtiter plate, the pre-determined number of various cell strains (0.1 ml) were added and pre-cultivated for a day under the same cultivation conditions as Experiment 1. To each well, 0.1 ml of the compound (I-1) was added so that the concentration was in the range of 0-10,000 ng/ml. After the cultivation for 3-4 days, 25 μl of 6 mg/ml MTT [3-(4,5-dimethylthiazol-2-yl)-2,5-diphenyltetrazolium bromide] (Sigma) solution was added to each well and the cells were cultivated at 37° C. for 4 hours under the same conditions as above. After the cultivation, 50 μl of 0.02 N hydrochloric acid solution of 20% sodium dodecyl sulfate was added to formazan generated and left at 37° C. for 24 hours for dissolving formazan. An absorption intensity (OD) of formazan generated in proportion to the number of living cells was measured with an immunoreader (InterMed) equipped with a 570 nm filter (The Journal of Immunological Method, No.65, p.55-63, 1983). The 50% inhibitory concentration of a cell proliferation (IC 50) was calculated from a correlation between a concentration of the compound (I-1) and absorption intensity.

[4] = Solubility (characterisation data); assay type: physicochemical
[5] = test system: BDF1 mouse splenocytes; experiment: Suppression of the concanavalin A (Con A) mitogen reaction of mouse splenocytes, 3H-thymidine uptake; assay type: cell-based; design: Radioactivity cpm ± SD: dose or concentration left out as unconfirmed; conditions: for inhibition at 0.25 µg/mL: Mus musculus, Splenocyte, 48 h, Con A 5 μg/ml, compound 250.0 ng/ml
[6] = test system: CCFR-CEM human leukemia cell; experiment: Cell proliferation inhibition (MTT), CCFR-CEM; assay type: cell-based
Method: as §2

[7] = test system: P388 mouse leukemia cell; experiment: Cell proliferation inhibition (MTT), P388; assay type: cell-based
Method: as §2

[8] = test system: Lu-99 human large cell lung cancer; experiment: Cell proliferation inhibition (MTT), Lu-99; assay type: cell-based
Method: as §2

SMILES	Radioactivity cpm ± SD ([1]; compound 0.25 ng/ml)	Radioactivity cpm ± SD ([1]; compound 0.98 ng/ml)	Radioactivity cpm ± SD ([1]; compound 3.91 ng/ml)	Radioactivity cpm ± SD ([1]; compound 15.6 ng/ml)	Radioactivity cpm ± SD ([1]; compound 62.5 ng/ml)	inhibition at 0.00025 µg/mL ([1]; compound 0.25 ng/ml)	inhibition at 0.00098 µg/mL ([1]; compound 0.98 ng/ml)	inhibition at 0.00391 µg/mL ([1]; compound 3.91 ng/ml)	inhibition at 0.0156 µg/mL ([1]; compound 15.6 ng/ml)	inhibition at 0.0625 µg/mL ([1]; compound 62.5 ng/ml)	IC50 [1]	Suppression of the Con A reaction of mouse splenocytes (in words) [1]	Radioactivity cpm ± SD ([2]; compound 0.98 ng/ml)	Radioactivity cpm ± SD ([2]; compound 3.91 ng/ml)	Radioactivity cpm ± SD ([2]; compound 15.6 ng/ml)	Radioactivity cpm ± SD ([2]; compound 62.5 ng/ml)	Radioactivity cpm ± SD ([2]; compound 250.0 ng/ml)	inhibition at 0.00098 µg/mL ([2]; compound 0.98 ng/ml)	inhibition at 0.00391 µg/mL ([2]; compound 3.91 ng/ml)	inhibition at 0.0156 µg/mL ([2]; compound 15.6 ng/ml)	other results
COc1cc(-c2ccc(O)cc2)c(OC)c(O)c1-c1ccc(OCC=C(C)C)c(O)c1 [Compound I-1, 3',6'-dimethoxy-4-(3-methyl-2-butenyloxy) -[1,1':4',1"] terphenyl-3,2',4"-triol]	292470 ± 542 cpm	210046 ± 3288 cpm	56871 ± 1554 cpm	11366 ± 372 cpm	6411 ± 246 cpm	-5.6%	24.5%	80.5%	97.1%	98.9%	1.2 ng/mL (≈ 0.00284 µM)	significantly suppressed	153396 ± 6123 cpm	88405 ± 10394 cpm	32548 ± 315 cpm	16070 ± 944 cpm	15046 ± 344 cpm	0.3%	43.4%	80.4%	inhibition at 0.0625 µg/mL ([2]; compound 62.5 ng/ml): 91.3%; inhibition at 0.25 µg/mL ([2]; compound 250.0 ng/ml): 92%; IC50 [2]: 4.5 ng/mL (≈ 0.0107 µM); Suppressive effect on the LPS reaction of mouse splenocytes (in words) [2]: potent suppressive effect; IC50 ([3]; Homo sapiens, CCD-19Lu, MEM, 2 × 10^4 cells/well, MTT, 3-4 days, read-out: IC50 (ng/ml) of cell proliferation): > 10000 ng/mL; Antiproliferative activity (in words) ([3]; normal pneumocyte CCD-19Lu): not on the normal pneumocyte CCD-19Lu; Solubility in acetone, ethyl acetate and chloroform [4]: soluble; Solubility in water [4]: insoluble; Radioactivity cpm ± SD [5]: 6404 ± 403 cpm; inhibition at 0.25 µg/mL [5]: 98.9%; IC50 ([6]; Homo sapiens, CCFR-CEM, RPMI 1640, 5 × 10^3 cells/well, MTT, 3-4 days, read-out: IC50 (ng/ml) of cell proliferation): 0.2 ng/mL (≈ 0.000473 µM); Antiproliferative activity (in words) ([6]; tumor cells (CCFR-CEM)): has an antiproliferative activity on the tumor cells; IC50 ([7]; Mus musculus, P388, RPMI 1640, 5 × 10^2 cells/well, MTT, 3-4 days, read-out: IC50 (ng/ml) of cell proliferation): 12 ng/mL (≈ 0.0284 µM); Antiproliferative activity (in words) ([7]; tumor cells (P388)): has an antiproliferative activity on the tumor cells; IC50 ([8]; Homo sapiens, Lu-99, RPMI 1640, 2 × 10^3 cells/well, MTT, 3-4 days, read-out: IC50 (ng/ml) of cell proliferation): 1 ng/mL (≈ 0.00237 µM); Antiproliferative activity (in words) ([8]; tumor cells (Lu-99)): has an antiproliferative activity on the tumor cells
COc1cc(-c2c(OC)cc(-c3ccc(O)cc3)c(OC)c2O)ccc1OCC=C(C)C [Compound I-3, 3,3',6'-trimethoxy-4-(3-methyl-2-butenyloxy)-[1,1';4',1"] terphenyl-2',4"-diol]	285408 ± 7252 cpm	266173 ± 6208 cpm	101504 ± 1326 cpm	20510 ± 287 cpm	7755 ± 624 cpm	-3.1%	4%	64.2%	93.8%	98.4%	2 ng/mL (≈ 0.00458 µM)	significantly suppressed	184366 ± 10625 cpm	128436 ± 4167 cpm	46765 ± 2209 cpm	22961 ± 1187 cpm	14962 ± 866 cpm	-20.2%	16.8%	71%	inhibition at 0.0625 µg/mL ([2]; compound 62.5 ng/ml): 86.7%; inhibition at 0.25 µg/mL ([2]; compound 250.0 ng/ml): 92%; IC50 [2]: 8 ng/mL (≈ 0.0183 µM); Suppressive effect on the LPS reaction of mouse splenocytes (in words) [2]: potent suppressive effect; Solubility in acetone, ethyl acetate and chloroform [4]: soluble; Solubility in water [4]: insoluble; Radioactivity cpm ± SD [5]: 7522 ± 485 cpm; inhibition at 0.25 µg/mL [5]: 98.5%
COc1cc(-c2ccccc2)c(OC)c(O)c1-c1ccc(OCC=C(C)C)c(O)c1 [Compound I-2, 3',6'-dimethoxy-4-(3-methyl-2-butenyloxy)-[1,1';4',1"] terphenyl-3,2'-diol]	281904 ± 6522 cpm	281371 ± 10119 cpm	191575 ± 6969 cpm	41660 ± 531 cpm	11793 ± 235 cpm	-1.8%	-1.6%	30.9%	86%	96.9%	5.6 ng/mL (≈ 0.0138 µM)	significantly suppressed	208023 ± 8941 cpm	132834 ± 5106 cpm	78686 ± 4135 cpm	39824 ± 651 cpm	22312 ± 1122 cpm	-35.9%	13.9%	49.8%	inhibition at 0.0625 µg/mL ([2]; compound 62.5 ng/ml): 75.6%; inhibition at 0.25 µg/mL ([2]; compound 250.0 ng/ml): 87.2%; IC50 [2]: 15.6 ng/mL (≈ 0.0384 µM); Suppressive effect on the LPS reaction of mouse splenocytes (in words) [2]: potent suppressive effect; Solubility in acetone, ethyl acetate and chloroform [4]: soluble; Solubility in water [4]: insoluble; Radioactivity cpm ± SD [5]: 8233 ± 254 cpm; inhibition at 0.25 µg/mL [5]: 98.2%
